Reference: patent publication US20210308089A1, “METHODS OF TREATING AND/OR PREVENTING VIRAL INFECTIONS AND/OR DISEASES CAUSED BY VIRUSES IN A SUBJECT IN NEED THEREOF” (priority 2020, published 2021)
Read-outs that look alike come from different tables or passages of the source.

Tested on: patients of the REDUCE-IT and earlier EPA placebo-controlled trials
Format: in vivo, human
Conditions: for Placebo-Adjusted % Change / ARR / NNT / Risk Ratio (95% CI): R-I
[1] = Hematocrit shift: normal to high (Day 120)
[2] = Hematocrit shift: normal to high (Day 360)
[3] = Hematocrit shift: normal to high (Day 720)
[4] = Hematocrit shift: normal to high (Day 1080)
[5] = Hematocrit shift: normal to high (Day 1440)
[6] = Hematocrit shift: normal to high (Day 1800)
[7] = Hematocrit shift: normal to low (Day 120)
[8] = Hematocrit shift: normal to low (Day 360)
[9] = Hematocrit shift: normal to low (Day 720)
[10] = Hematocrit shift: normal to low (Day 1080)
[11] = Hematocrit shift: normal to low (Day 1440)
[12] = Hematocrit shift: normal to low (Day 1800)
[13] = Hemoglobin shift: normal to high (Day 120)
[14] = Hemoglobin shift: normal to high (Day 360)
[15] = Hemoglobin shift: normal to high (Day 720)
[16] = Hemoglobin shift: normal to high (Day 1080)
[17] = Hemoglobin shift: normal to high (Day 1440)
[18] = Hemoglobin shift: normal to high (Day 1800)
[19] = Hemoglobin shift: normal to low (Day 120)
[20] = Hemoglobin shift: normal to low (Day 360)
[21] = Hemoglobin shift: normal to low (Day 720)
[22] = Hemoglobin shift: normal to low (Day 1080)
[23] = Hemoglobin shift: normal to low (Day 1440)
[24] = Hemoglobin shift: normal to low (Day 1800)

CC/C=C\C/C=C\C/C=C\C/C=C\C/C=C\CCCC(=O)OCC [icosapent ethyl, eicosapentaenoic acid ethyl ester]
Placebo-Adjusted % Change (Hematocrit (Day 360)): +.78% | Placebo-Adjusted % Change (Hematocrit (Day 720)): +1.28% | Placebo-Adjusted % Change (Hematocrit (Day 1080)): +1.59% | Placebo-Adjusted % Change (Hematocrit (Day 1440)): +1.86% | ARR [1]: 0.4% | NNT [1]: −234 | Risk Ratio (95% CI) [1]: 1.507 (0.952 to 2.386) −2 | ARR [2]: 0.3% | NNT [2]: −364 | Risk Ratio (95% CI) [2]: 1.273 (0.811 to 1.999) −2 | ARR [3]: 0.2% | NNT [3]: −566 | Risk Ratio (95% CI) [3]: 1.181 (0.724 to 1.927) −1 | ARR [4]: 0.4% | NNT [4]: −282 | Risk Ratio (95% CI) [4]: 1.433 (0.826 to 2.487) −2 | ARR [5]: 0.7% | NNT [5]: −138 | Risk Ratio (95% CI) [5]: 2.208 (1.155 to 4.221) −3 | ARR [6]: 0.3% | NNT [6]: −354 | Risk Ratio (95% CI) [6]: 1.420 (0.582 to 3.462) −2 | ARR [7]: −0.4% | NNT [7]: 228 | Risk Ratio (95% CI) [7]: 0.828 (0.612 to 1.120) 1 | ARR [8]: −0.6% | NNT [8]: 158 | Risk Ratio (95% CI) [8]: 0.784 (0.583 to 1.054) 2 | ARR [9]: −1.1% | NNT [9]: 90 | Risk Ratio (95% CI) [9]: 0.747 (0.579 to 0.964) 2 | ARR [10]: −2.2% | NNT [10]: 45 | Risk Ratio (95% CI) [10]: 0.607 (0.469 to 0.785) 2 | ARR [11]: −2.1% | NNT [11]: 47 | Risk Ratio (95% CI) [11]: 0.650 (0.500 to 0.845) 2 | ARR [12]: −0.9% | NNT [12]: 111 | Risk Ratio (95% CI) [12]: 0.859 (0.627 to 1.179) 1 | Placebo-Adjusted % Change (Hemoglobin (Day 120)): +.53% | Placebo-Adjusted % Change (Hemoglobin (Day 360)): +1% | Placebo-Adjusted % Change (Hemoglobin (Day 720)): +1.51% | Placebo-Adjusted % Change (Hemoglobin (Day 1080)): +2.09% | Placebo-Adjusted % Change (Hemoglobin (Day 1440)): +2.36% | ARR [13]: 0.3% | NNT [13]: −313 | Risk Ratio (95% CI) [13]: 1.668 (0.915 to 3.042) −2 | ARR [14]: −0.1% | NNT [14]: 961 | Risk Ratio (95% CI) [14]: 0.908 (0.571 to 1.442) 1 | ARR [15]: 0.2% | NNT [15]: −491 | Risk Ratio (95% CI) [15]: 1.144 (0.760 to 1.721) −1 | ARR [16]: 1.0% | NNT [16]: −103 | Risk Ratio (95% CI) [16]: 2.241 (1.330 to 3.778) −3 | ARR [17]: 0.7% | NNT [17]: −145 | Risk Ratio (95% CI) [17]: 1.829 (1.036 to 3.229) −3 | ARR [18]: 0.4% | NNT [18]: −240 | Risk Ratio (95% CI) [18]: 1.383 (0.686 to 2.788) −2 | ARR [19]: 0.0% | NNT [19]: −2370 | Risk Ratio (95% CI) [19]: 1.013 (0.787 to 1.303) −1 | ARR [20]: −0.7% | NNT [20]: 134 | Risk Ratio (95% CI) [20]: 0.828 (0.652 to 1.051) 1 | ARR [21]: −1.1% | NNT [21]: 93 | Risk Ratio (95% CI) [21]: 0.815 (0.657 to 1.011) 1 | ARR [22]: −2.3% | NNT [22]: 44 | Risk Ratio (95% CI) [22]: 0.703 (0.570 to 0.868) 2 | ARR [23]: −2.7% | NNT [23]: 37 | Risk Ratio (95% CI) [23]: 0.685 (0.553 to 0.849) 2 | ARR [24]: −1.5% | NNT [24]: 67 | Risk Ratio (95% CI) [24]: 0.827 (0.630 to 1.085) 1 | ARR (Lymphocytes: PCS High >45%): 2.7% | NNT (Lymphocytes: PCS High >45%): −38 | Risk Ratio (95% CI) (Lymphocytes: PCS High >45%): 1.543 (1.296 to 1.838) −2 | ARR (Lymphocytes: PCS Low <30%): −6.3% | NNT (Lymphocytes: PCS Low <30%): 16 | Risk Ratio (95% CI) (Lymphocytes: PCS Low <30%): 0.924 (0.904 to 0.945) 1 | Placebo-Adjusted % Change (Neutrophils (Day 120)): +1.11% | Placebo-Adjusted % Change (Neutrophils (Day 360)): −3% | Placebo-Adjusted % Change (Neutrophils (Day 720)): −4.7% | Placebo-Adjusted % Change (Neutrophils (Day 1080)): −4.52% | Placebo-Adjusted % Change (Neutrophils (Day 1440)): −3.06% | Placebo-Adjusted % Change (Neutrophils/Leukocytes (Ratio) (Day 120)): −2.06% | Placebo-Adjusted % Change (Neutrophils/Leukocytes (Ratio) (Day 360)): −3.87% | Placebo-Adjusted % Change (Neutrophils/Leukocytes (Ratio) (Day 720)): −4.61% | Placebo-Adjusted % Change (Neutrophils/Leukocytes (Ratio) (Day 1080)): −4.21% | Placebo-Adjusted % Change (Neutrophils/Leukocytes (Ratio) (Day 1440)): −4.1% | AR: ALP >2x ULN (AE table) (human, in vivo): 0.6% | AR: ALP > ULN (AE table) (human, in vivo): 9.8% | AR: Blood uric acid increased (AE table) (human, in vivo): 1.0% | AR: Gout (AE table) (human, in vivo): 3.6% | AR: Hepatomegaly (AE table) (human, in vivo): 0.4% | AR: Hyperuricemia (AE table) (human, in vivo): 0.6% | AR: Spleen disorders (AE table) (human, in vivo): 0.3% | AR: Splenomegaly (AE table) (human, in vivo): 0.2% | ARR: ALP >2x ULN (AE table) (human, in vivo): −0.3% | ARR: ALP > ULN (AE table) (human, in vivo): −4.5% | ARR: Blood uric acid increased (AE table) (human, in vivo): 0.1% | ARR: Gout (AE table) (human, in vivo): 1.1% | ARR: Hepatomegaly (AE table) (human, in vivo): −0.4% | ARR: Hyperuricemia (AE table) (human, in vivo): 0.3% | ARR: Spleen disorders (AE table) (human, in vivo): −0.3% | ARR: Splenomegaly (AE table) (human, in vivo): −0.1% | Lab Reported Events: % of subjects (human, in vivo): (79.9) % | Lab Reported Events: number of subjects (human, in vivo): 3269 | NNT: ALP >2x ULN (AE table) (human, in vivo): 341 | NNT: ALP > ULN (AE table) (human, in vivo): 22 | NNT: Blood uric acid increased (AE table) (human, in vivo): −680 | NNT: Gout (AE table) (human, in vivo): −93 | NNT: Hepatomegaly (AE table) (human, in vivo): 256 | NNT: Hyperuricemia (AE table) (human, in vivo): −292 | NNT: Spleen disorders (AE table) (human, in vivo): 372 | NNT: Splenomegaly (AE table) (human, in vivo): 682 | Platelet Count: PCS High >500 × 10^3/uL (human, in vivo): 16 (0.4%) n(%) | Platelet Count: PCS High >500 × 10^3/uL: % of subjects (human, in vivo): (0.4) % | Platelet Count: PCS High >500 × 10^3/uL: number of subjects (human, in vivo): 16 | Platelet Count: PCS Low <100 × 10^3/uL (human, in vivo): 19 (0.5%) n(%) | Platelet Count: PCS Low <100 × 10^3/uL: % of subjects (human, in vivo): (0.5) % | Platelet Count: PCS Low <100 × 10^3/uL: number of subjects (human, in vivo): 19 | Risk Ratio (95% CI): ALP >2x ULN (AE table) (human, in vivo): 0.600 (0.335 to 1.075) 2 | Risk Ratio (95% CI): ALP > ULN (AE table) (human, in vivo): 0.624 (0.545 to 0.714) 2 | Risk Ratio (95% CI): Blood uric acid increased (AE table) (human, in vivo): 1.154 (0.753 to 1.768) −1 | Risk Ratio (95% CI): Gout (AE table) (human, in vivo): 1.347 (1.075 to 1.687) −2 | Risk Ratio (95% CI): Hepatomegaly (AE table) (human, in vivo): 0.304 (0.131 to 0.709) 4 | Risk Ratio (95% CI): Hyperuricemia (AE table) (human, in vivo): 1.737 (0.990 to 3.050) −3 | Risk Ratio (95% CI): Spleen disorders (AE table) (human, in vivo): 0.353 (0.139 to 0.894) 4 | Risk Ratio (95% CI): Splenomegaly (AE table) (human, in vivo): 0.400 (0.126 to 1.275) 3 | WBC Differential (Lymphocytes): PCS High >45%: % of subjects (human, in vivo): (7.4) % | WBC Differential (Lymphocytes): PCS High >45%: number of subjects (human, in vivo): 301 | WBC Differential (Lymphocytes): PCS Low <30%: % of subjects (human, in vivo): (75.0) % | WBC Differential (Lymphocytes): PCS Low <30%: number of subjects (human, in vivo): 3067 | WBC Differential (Monocytes): PCS High >6% (human, in vivo): 3101 (78.0%) n(%)
